From patent US9163015B2, “Pyrazolopyridine, pyrarolopyrazine, pyrazolopyrimidine, pyrazolothiophene and pyrazolothiazole compounds as MGLUR4 allosteric potentiators, compositions, and methods of treating neurological dysfunction” (Vanderbilt University, priority 2010, dated 2015) come the findings set out here.

Bounds are passed on as bounds.

The EC50 is the midpoint of the concentration-response curve.

The test deals with human mGluR4 (Homo sapiens (Human), UniProt Q14833). Put plainly: mGluR4 potentiation assay, CHO cells transfected with human mGluR4, Ca2+-sensitive fluorescent dye, EC20 agonist. The note with it: potentiation of mGluR4; table does not state human or rat receptor. Type of test: cell-based. How it is done:
The disclosed compounds and compositions can be evaluated for their ability to act as a potentiator of metabotropic glutamate receptor activity, in particular mGluR4 activity, by any suitable known methodology known in the art. For example, Chinese Hamster Ovary (CHO) cells transfected with human mGluR4 or HEK cells co-transfected with rat mGluR4 and the G-protein regulated Inwardly Rectifying Potassium channel (GIRK) were plated in clear bottom assay plates for assay in a Hamamatsu FDSS Fluorometric Plate Reader. The cells were loaded with either a Ca2+-sensitive fluorescent dye or the thallium responsive dye and the plates were washed and placed into a suitable kinetic plate reader. For human mGluR4 assays, a fluorescence baseline was established for 3-5 seconds, the disclosed compounds were then added to the cells, and the response in cells was measured. Approximately two and a half minutes later, a concentration of mGluR4 orthosteric agonist (e.g. glutamate or L-AP4) eliciting approximately 20% (EC20) of the maximal agonist response was added to the cells, and the response was measured. Two minutes later, a concentration of mGluR4 agonist (e.g. glutamate or L-AP4) eliciting 80% (EC80) of the maximal agonist response was added to the cells, and the response was measured. For rat mGluR4/GIRK experiments, a baseline was established for approximately five seconds, disclosed compounds were added, and either an EC20 or EC80 concentration of agonist was added approximately two and one half minutes later.
The above described assay operated in two modes. In the first mode, a range of concentrations of the disclosed compounds are added to cells, followed by a single fixed concentration of agonist. If the compound acts as a potentiatior, an EC50 value for potentiation and a maximum extent of potentiation by the compound at this concentration of agonist is determined by non-linear curve fitting. If the compound acts as a noncompetitive antagonist, an IC50 value is determined by non-linear curve fitting. In the second mode, several fixed concentrations of the disclosed compounds are added to various wells on a plate, followed by a range in concentrations of agonist for each concentration of disclosed compound. The EC50 values for the agonist at each concentration of compound are determined by non-linear curve fitting. A decrease in the EC50 value of the agonist with increasing concentrations of the sample compound (a leftward shift of the agonist concentration-response curve) is an indication of the degree of mGluR4 potentiation at a given concentration of the sample compound. A decrease in the maximal response of the agonist with increasing concentrations of the sample compounds, with or without a rightward shift in agonist potency, is an indication of the degree of noncompetitive antagonism at mGluR4. The second mode also indicates whether the sample compounds also affect the maximum response to mGluR4 to agonists.

Sequence of human mGluR4 (Q14833 33-912): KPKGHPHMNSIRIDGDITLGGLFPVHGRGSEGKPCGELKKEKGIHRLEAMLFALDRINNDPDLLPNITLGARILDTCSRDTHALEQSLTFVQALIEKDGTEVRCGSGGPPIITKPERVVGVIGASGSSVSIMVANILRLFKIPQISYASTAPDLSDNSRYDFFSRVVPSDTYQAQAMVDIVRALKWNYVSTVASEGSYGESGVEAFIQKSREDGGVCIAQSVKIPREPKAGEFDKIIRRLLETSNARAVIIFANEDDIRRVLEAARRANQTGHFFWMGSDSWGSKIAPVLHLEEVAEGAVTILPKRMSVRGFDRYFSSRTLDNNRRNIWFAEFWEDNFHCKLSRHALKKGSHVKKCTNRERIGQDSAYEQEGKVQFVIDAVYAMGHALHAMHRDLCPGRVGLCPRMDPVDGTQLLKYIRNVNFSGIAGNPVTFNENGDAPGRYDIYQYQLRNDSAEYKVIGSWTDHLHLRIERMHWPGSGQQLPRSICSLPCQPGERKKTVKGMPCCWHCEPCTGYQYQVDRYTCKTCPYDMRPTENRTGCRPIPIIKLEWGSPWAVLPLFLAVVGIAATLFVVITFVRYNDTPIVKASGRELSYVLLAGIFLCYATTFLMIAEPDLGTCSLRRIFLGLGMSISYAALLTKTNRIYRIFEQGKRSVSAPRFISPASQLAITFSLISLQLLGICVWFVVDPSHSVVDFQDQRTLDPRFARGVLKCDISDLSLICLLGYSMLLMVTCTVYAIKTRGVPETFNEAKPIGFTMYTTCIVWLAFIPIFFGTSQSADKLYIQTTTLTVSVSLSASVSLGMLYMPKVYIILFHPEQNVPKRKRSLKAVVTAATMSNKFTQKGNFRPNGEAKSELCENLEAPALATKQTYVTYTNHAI

Consider `Cn1nc2cccnc2c1Nc1ccc(F)c(Cl)c1` [Example 59, N-(3-chloro-4-fluorophenyl)-2-methyl-2H-pyrazolo[4,3-b]pyridin-3-amine], for which the EC50 amounted to 11900 nM.

Take `Clc1cc(Nc2n[nH]c3cccnc23)ccc1OCc1ccccc1` [Example 87, N-(4-(benzyloxy)-3-chlorophenyl)-1H-pyrazolo[4,3-b]pyridin-3-amine]: the EC50 was found to be 426 nM.

With `FC(F)(F)c1cc(Nc2n[nH]c3cccnc23)cc(C(F)(F)F)c1` [Example 67, N-(3,5-bis(trifluoromethyl)phenyl)-1H-pyrazolo[4,3-b]pyridin-3-amine], the EC50 turned out to be 3050 nM.

Take `Clc1cc(Nc2n[nH]c3cccnc23)ccc1Oc1ncccn1` [Example 24, N-(3-chloro-4-(pyrimidin-2-yloxy)phenyl)-1H-pyrazolo[4,3-b]pyridin-3-amine]: the EC50 stood at 116 nM.

As for `Cc1ccc(F)c(Nc2n[nH]c3cccnc23)c1` [Example 84, N-(2-fluoro-5-methylphenyl)-1H-pyrazolo[4,3-b]pyridin-3-amine], the EC50 came to 314 nM.

With `CNc1ncc(Nc2n[nH]c3cccnc23)cc1Cl` [Example 48, 3-chloro-N2-methyl-N5-(1H-pyrazolo[4,3-b]pyridin-3-yl)pyridine-2,5-diamine], the EC50 was 6440 nM.

As to `O=C(c1ccccc1)c1ccc(Nc2n[nH]c3cccnc23)cc1Cl` [Example 64, (4-((1H-pyrazolo[4,3-b]pyridin-3-yl)amino)-2-chlorophenyl)(phenyl)methanone], the EC50 amounted to 351 nM.

Regarding `Clc1ccc(Nc2n[nH]c3cccnc23)cn1` [Example 15, N-(6-chloropyridin-3-yl)-1H-pyrazolo[4,3-b]pyridin-3-amine], the EC50 came to 5500 nM.

Regarding `Clc1cc(Nc2n[nH]c3cccnc23)ccc1Oc1cnccn1` [Example 66, N-(3-chloro-4-(pyrazin-2-yloxy)phenyl)-1H-pyrazolo[4,3-b]pyridin-3-amine], the EC50 was 108 nM.

For `Cc1cc(NC(=O)Nc2n[nH]c3cccnc23)ccc1F` [Example 46, 1-(4-fluoro-3-methylphenyl)-3-(1H-pyrazolo[4,3-b]pyridin-3-yl)urea], the EC50 was 6840 nM.

As to `CS(=O)(=O)c1ccc(Nc2n[nH]c3cccnc23)cc1F` [Example 58, N-(3-fluoro-4-(methylsulfonyl)phenyl)-1H-pyrazolo[4,3-b]pyridin-3-amine], the EC50 worked out at 11500 nM.

For the compound `c1cnc2c(Nc3cncnc3)n[nH]c2c1` [Example 39, N-(pyrimidin-5-yl)-1H-pyrazolo[4,3-b]pyridin-3-amine], the EC50 stood at 8990 nM.

Turning to `Cc1cc(Nc2n[nH]c3cccnc23)ccc1F` [Example 82, N-(4-fluoro-3-methylphenyl)-1H-pyrazolo[4,3-b]pyridin-3-amine], the EC50 was found to be 68 nM.

Take `Clc1cc(Nc2n[nH]c3cccnc23)cc(Cl)c1Cl` [Example 42, N-(3,4,5-trichlorophenyl)-1H-pyrazolo[4,3-b]pyridin-3-amine]: the EC50 was 721 nM.

Consider `Fc1cc(Cl)cc(Nc2n[nH]c3cccnc23)c1` [Example 70, N-(3-chloro-5-fluorophenyl)-1H-pyrazolo[4,3-b]pyridin-3-amine], for which the EC50 worked out at 32 nM.

For the compound `Fc1ccc(Nc2n[nH]c3cccnc23)cc1F` [Example 5, N-(3,4-difluorophenyl)-1H-pyrazolo[4,3-b]pyridin-3-amine], the EC50 was determined as 644 nM.

`Fc1cc(F)c(F)c(Nc2n[nH]c3cccnc23)c1` [Example 57, N-(2,3,5-trifluorophenyl)-1H-pyrazolo[4,3-b]pyridin-3-amine]: the EC50 was found to be 782 nM.

Turning to `Clc1ccnc(Nc2n[nH]c3cccnc23)c1` [Example 13, N-(4-chloropyridin-2-yl)-1H-pyrazolo[4,3-b]pyridin-3-amine], the EC50 was found to be 284 nM.

As to `Cc1cc(C)cc(Nc2n[nH]c3cccnc23)c1` [Example 37, N-(3,5-dimethylphenyl)-1H-pyrazolo[4,3-b]pyridin-3-amine], the EC50 came out at 177 nM.

For `FC(F)(F)c1ccc(Nc2n[nH]c3cccnc23)cc1Cl` [Example 22, N-(3-chloro-4-(trifluoromethyl)phenyl)-1H-pyrazolo[4,3-b]pyridin-3-amine], the EC50 came out at 2150 nM.

Turning to `Clc1cc(Nc2n[nH]c3cccnc23)ccn1` [Example 23, N-(2-chloropyridin-4-yl)-1H-pyrazolo[4,3-b]pyridin-3-amine], the EC50 was 1490 nM.

In the case of `COc1cccc(Nc2n[nH]c3cccnc23)c1` [Example 19, N-(3-methoxyphenyl)-1H-pyrazolo[4,3-b]pyridin-3-amine], the EC50 stood at 169 nM.

Turning to `Clc1cc(Nc2n[nH]c3cccnc23)ccc1Oc1ccccn1` [Example 52, N-(3-chloro-4-(pyridin-2-yloxy)phenyl)-1H-pyrazolo[4,3-b]pyridin-3-amine], the EC50 was determined as 112 nM.

`Cc1cncc(Nc2n[nH]c3cccnc23)c1` [Example 33, N-(5-methylpyridin-3-yl)-1H-pyrazolo[4,3-b]pyridin-3-amine]: the EC50 came to 7380 nM.

For the compound `Fc1ccc(Nc2n[nH]c3cccnc23)cc1C(F)(F)F` [Example 71, N-(4-fluoro-3-(trifluoromethyl)phenyl)-1H-pyrazolo[4,3-b]pyridin-3-amine], the EC50 stood at 385 nM.

On to `Fc1ccc(Cl)cc1Nc1n[nH]c2cccnc12` [Example 16, N-(5-chloro-2-fluorophenyl)-1H-pyrazolo[4,3-b]pyridin-3-amine], for which the EC50 is 116 nM.

As for `Clc1cc(Nc2n[nH]c3cccnc23)cnc1Cl` [Example 47, N-(5,6-dichloropyridin-3-yl)-1H-pyrazolo[4,3-b]pyridin-3-amine], the EC50 was determined as 1020 nM.

As to `N#Cc1ccc(Nc2n[nH]c3cccnc23)cc1Cl` [Example 21, 4-((1H-pyrazolo[4,3-b]pyridin-3-yl)amino)-2-chlorobenzonitrile], the EC50 is 93 nM.

As to `c1cnc2c(NCC3CCCCC3)n[nH]c2c1` [Example 49, N-(cyclohexylmethyl)-1H-pyrazolo[4,3-b]pyridin-3-amine], the EC50 turned out to be 5300 nM.

`CC(C)C1CCC(Nc2n[nH]c3cccnc23)CC1` (centres unmarked) [Example 29, N-(4-isopropylcyclohexyl)-1H-pyrazolo[4,3-b]pyridin-3-amine]: the EC50 turned out to be 5220 nM.

For `Fc1ccc(CNc2n[nH]c3cccnc23)cc1Cl` [Example 51, N-(3-chloro-4-fluorobenzyl)-1H-pyrazolo[4,3-b]pyridin-3-amine], the EC50 was determined as 7080 nM.

As to `Fc1cc(F)c(Nc2n[nH]c3cccnc23)cc1Cl` [Example 79, N-(5-chloro-2,4-difluorophenyl)-1H-pyrazolo[4,3-b]pyridin-3-amine], the EC50 was determined as 342 nM.

Regarding `Fc1cc(Nc2n[nH]c3cccnc23)cc(C(F)(F)F)c1` [Example 62, N-(3-fluoro-5-(trifluoromethyl)phenyl)-1H-pyrazolo[4,3-b]pyridin-3-amine], the EC50 is 217 nM.

On to `Fc1ccc(Nc2n[nH]c3scnc23)cc1Cl` [Example 41, N-(3-chloro-4-fluorophenyl)-1H-pyrazolo[4,3-d]thiazol-3-amine], for which the EC50 was determined as 1180 nM.

Consider `Clc1cc(Nc2n[nH]c3cccnc23)cnc1N1CCOCC1` [Example 30, N-(5-chloro-6-morpholinopyridin-3-yl)-1H-pyrazolo[4,3-b]pyridin-3-amine], for which the EC50 came to 2380 nM.

On to `Fc1ccc(Nc2n[nH]c3nccnc23)cc1Cl` [Example 28, N-(3-chloro-4-fluorophenyl)-1H-pyrazolo[3,4-b]pyrazin-3-amine], for which the EC50 was found to be 156 nM.

Take `CN1C(=O)COc2cc(Nc3n[nH]c4cccnc34)ccc21` [Example 54, 7-((1H-pyrazolo[4,3-b]pyridin-3-yl)amino)-4-methyl-2H-benzo[b][1,4]oxazin-3(4H)-one]: the EC50 was more than 10000 nM.

With `Fc1c(Cl)cc(Nc2n[nH]c3cccnc23)cc1Cl` [Example 43, N-(3,5-dichloro-4-fluorophenyl)-1H-pyrazolo[4,3-b]pyridin-3-amine], the EC50 was 410 nM.

For the compound `FC(F)Oc1cccc(Nc2n[nH]c3cccnc23)c1` [Example 9, N-(3-(difluoromethoxy)phenyl)-1H-pyrazolo[4,3-b]pyridin-3-amine], the EC50 was 254 nM.

Consider `c1ccc2ncc(Nc3n[nH]c4cccnc34)cc2c1` [Example 40, N-(1H-pyrazolo[4,3-b]pyridin-3-yl)quinolin-3-amine], for which the EC50 came to 961 nM.

Consider `Cc1cc(Nc2n[nH]c3cccnc23)ccc1Cl` [Example 7, N-(4-chloro-3-methylphenyl)-1H-pyrazolo[4,3-b]pyridin-3-amine], for which the EC50 is 164 nM.
